# Laboratory results as given in patent US20040126359A1, “Hedgehog” (priority 2001, published 2004).
# Legend:
# [1] = test system: CD4+ T-cells; test: Real time PCR of Shh, ptc, Gli1 and bcl-2 transcripts in sub-optimally activated CD4+ T-cells; type: cell-based, mouse
# Description: CD4^+ T-cells were cultured as above in 48 well plates with and without addition of exogenous Shh or 5E1. At various time points (24 hr, 48 hr, 72 hr) post-activation, the CD4^+ T-cells were spun at 300 g for 7 mins then resuspended in lysis buffer provided as part of the RNeasy kit used for the RNA isolation (Qiagen Ltd, Crawley, UK). Any contaminating DNA was then digested by treating the RNA with DnaseI (Life Technologies) according to the manufacturer's instructions. In order to check that no contaminating DNA remained, a PCR was carried out using genomic β-actin primers (forward primer 5′-CCACCAACTGGGACACATG-3′ (SEQ ID NO:10) and reverse primer 5′-[…]-3′ (SEQ ID NO:11)) (MWG-Biotech AG). The PCR program was as follows: 35 cycles of 30 secs at 94° C., 1 min at 58° C., 2 mins at 72° C. followed by a 5 min 72° C. extension then 4° C. hold. This was carried out on a PTC-200 Peltier thermal cycler (MJ Research Inc., Massachusetts, USA).
# Unless otherwise stated all materials for real time PCR were supplied by Applied Biosytems UK, Cheshire, UK. 400 ng of RNA was reverse transcribed using the Multiscribe RT kit. Samples were incubated for 10 min at 25° C., 40mins at 48° C. then 5 min at 95° C. to allow the reverse transcription to take place. cDNA samples were then diluted 1:5 in nuclease-free water (Promega). The PCR step was carried out using Taqman Universal PCR Mastermix, a primer/probe mix specific to the gene of interest and a primer/probe mix specific to 18s rRNA control reagent. The following primer/probe sequences were used:
# These probes were all labelled with the fluorescent dye fam (6-carboxy-fluorescein). The primer/probe mix for 18S was supplied by Applied Biosystems which was labelled with the fluorescent dye vic™. Each cDNA sample was run in duplicate 25 μl volumes on a capped 96-well optical reaction plate. The plate was run in the ABI Prism 7700 sequence detector using SDS software. The PCR conditions were as follows: 50° C. for 2 min, 95° C. for 10 min then 40 cycles of 15 sec at 95° C. and 1 min at 60° C. The software then analysed the data and output a pair of ‘ct’ values for each sample. ‘Ct’ is the number of cycles needed to result in a signal crossing a set threshold. Each sample yielded two ct values, one for the gene of interest and one for the 18S house keeping control. The ct values were then transported to a Microsoft Excel spreadsheet and analysed to give a value representing the relative mRNA levels present for the gene of interest linearly as per the manufacturers instructions.
# In order to analyse the mechanisms of Shh amplification of TCR mediated activation in CD4^+ T-cells, the kinetics of expression of components of the Shh signalling pathway and bcl-2 were analysed in activated CD4^+ T-cells in the presence and absence of exogenous Shh. CD4^+ T-cell cultures were set up as before, sub-optimally activated with anti-CD3/CD28 and Shh was added at t=0. RNA was extracted at 24, 48 and 72 hr post-activation. It has been reported that a 2× or greater increase in the transcription of any gene on at least 2 occasions is considered to be significant (Chtanova et al and Granucci et al).
# [2] = test system: CD4+ T-cells; test: T-cell proliferation assay (3H-TdR incorporation); type: cell-based, mouse
# Description: Single cell suspensions from pooled C57BL/6 mouse spleens were applied to negative selection CD4^+ T-cell columns (R&D systems Europe Ltd, Abingdon, UK) as per manufacturers instructions. Purity was checked using FACS staining with an anti-CD4^FITC antibody and this ranged between 88-93%.
# CD4^+ T-cells were cultured in RPMI 1640 medium (Life Technologies, Paisley, UK) supplemented with 10% FCS (Life Technologies), 2 mM L-glutamine, (Sigma, Dorset, UK), 20 μg/ml penicillin/streptomycin (Life Technologies) and […] 2-mercaptoethanol (Sigma). Anti-CD3/28 antibody activation was carried out at 2 concentrations, namely ‘sub-optimal’ (anti-CD3 at 0.25 μg/ml and anti-CD28 at 0.1 μg/ml) and ‘optimal’ (anti-CD3 at 1 μg/ml and anti-CD28 at 5 μg/ml). Tissue culture plates (Corning Inc., NY, USA) were coated with the anti-CD3 antibody for 90 min at 37° C. prior to addition of the CD4^+ T-cells. Recombinant mouse Shh amino-terminal peptide (R&D systems Europe Ltd, Abingdon, UK) was added into cultures at a concentration of 500 ng/ml. 5E1 antibody was used at either 20 μg/ml or 50 μg/ml and the isotype control was used at 20 μg/ml. The concentrations used were based on results of dose response curves (data not shown).
# The CD4^+ T-cells were cultured as above in 96-well plates with and without addition of exogenous Shh or 5E1. They were pulsed after 48 hr of anti-CD3/28 activation with 20 μl of ^3H-TdR (50 μCi/ml) (Amersham), harvested at 72 hr and read on a betaplate scintillation counter (Wallac UK, Milton Keynes, UK).
# Purified peripheral CD4^+ T-cells were cultured with and without the addition of the biologically active amino terminal Shh peptide. An initial titration curve established that 500 ng/ml was the optimal dose of the Shh peptide to enhance proliferation of peripheral CD4^+ T-cells (data not shown), and this concentration was used in all subsequent experiments. Shh was added to CD4^+ T-cells that were resting, maximally stimulated with anti-CD3 (1 μg/ml) and anti-CD28 (5 μg/ml) antibodies or sub-optimally activated with anti-CD3 (0.25 μg/ml) and anti-CD28 (0.1 μg/ml).
# [3] = test system: mouse spleen cells and purified CD4+ T-cells; test: Survival in culture by Trypan blue staining; type: cell-based; conditions: no activation; Shh 10 and 100 ng/ml; 4 day time frame
# Description: Survival was measured by Trypan blue staining of dead and alive cells in culture;
# Cells cultured in medium without Shh were used as controls;
# [4] = test system: CD4+ T-cells; test: Two-colour FACS analysis of CD69 and CD25 expression; type: cell-based; conditions: CD4+ T-cells activated 72 hours with anti-CD3 and anti-CD28, Shh 100 ng/ml
# [5] = test system: human CD8 T-cells; test: Proliferation of human CD8 T-cells cultured with Shh N-terminal active peptide (3H thymidine); type: cell-based; conditions: activated CD8+ T-cells; dose dependent
# [6] = Shh peptide at t=0, 24, 48, 72 hr
substance,measurement,setting,value
Shh peptide: Recombinant mouse Shh amino-terminal peptide (R&D systems); biologically active N-terminal Sonic hedgehog fragment,level of transcription of Gli1 vs media only activated cultures,[1]; [6],No difference
same,level of transcription of ptc vs media only activated cultures,[1]; [6],No difference
same,transcription of Shh vs media only activated cultures,"[1]; Shh peptide at t=0, 24 hr",significantly reduced
same,transcription of bcl-2 vs media only activated cultures,"[1]; Shh peptide at t=0, 72 hr",significantly increased
same,"Bcl-2 transcripts, time course normalised to 24 hr sample",[1]; in presence of exogenous Shh,increased at 48 hr and at 72 hr
same,"Gli1 transcription, time course normalised to 24 hr sample",[1]; in presence of exogenous Shh,increased at 48 hr and was maintained at 72 hr
same,"Shh transcription, time course normalised to 24 hr sample",[1]; in presence of exogenous Shh,increased both at 48 hr and 72 hr
same,"ptc transcription, time course normalised to 24 hr sample","[1]; in presence of exogenous Shh, 72 hr",marginally higher
same,optimal dose to enhance proliferation of peripheral CD4+ T-cells,[2]; initial titration curve (data not shown),500 ng/mL
same,level of proliferation (3H-TdR incorporation),"[2]; maximally stimulated (anti-CD3 1 μg/ml, anti-CD28 5 μg/ml), Shh peptide 500 ng/ml added at t=-24 hr or t=0",no significant difference
same,degree of proliferation,"[2]; resting CD4+ T-cells, Shh peptide 500 ng/ml",No significant difference
same,"increase in proliferation, range","[2]; sub-optimal activation, Shh peptide 500 ng/ml 24 hr prior to activation",16-63%
same,"increase in proliferation, mean","[2]; sub-optimal activation, Shh peptide 500 ng/ml 24 hr prior to activation, n=3, p<0.04",46%
same,"increase in CD4+ T-cell proliferation, mean","[2]; sub-optimal activation, Shh peptide 500 ng/ml at t=0, 72 hr, p<0.01",101.6%
same,"increase in CD4+ T-cell proliferation, range","[2]; sub-optimal anti-CD3 0.25 μg/ml, anti-CD28 0.1 μg/ml, Shh peptide 500 ng/ml at t=0, 72 hr",76.2-128%
same,survival in culture,[3],enhances their survival
same,CD25 expression in CD3 positive T-cells,[4]; activated only 31.64%,80.46%
same,CD69 expression in CD3 positive T-cells,[4]; activated only 33.87%,70.57%
same,incorporation of 3H-thymidine,[5],significantly enhances
